Results taken from publication PMC6694155, “PTPσ inhibitors promote hematopoietic stem cell regeneration” (Nature Communications, 2019).
Values joined by “and” are separate entries in the source; they are usually repeats but may differ in a detail not shown here. Equal entries are not always repeated.

Experiments:
[1] = target: T1, SHP-2 (Protein-Tyrosine Phosphatase 2C) (Homo sapiens, UniProt Q06124); assay: PhosphataseProfiler screen: SHP-2; format: biochemical; details: replicates
T1 construct: purchased Eurofins Pharma Discovery Services UK
T1 sequence (Q06124 whole entry, species assumed): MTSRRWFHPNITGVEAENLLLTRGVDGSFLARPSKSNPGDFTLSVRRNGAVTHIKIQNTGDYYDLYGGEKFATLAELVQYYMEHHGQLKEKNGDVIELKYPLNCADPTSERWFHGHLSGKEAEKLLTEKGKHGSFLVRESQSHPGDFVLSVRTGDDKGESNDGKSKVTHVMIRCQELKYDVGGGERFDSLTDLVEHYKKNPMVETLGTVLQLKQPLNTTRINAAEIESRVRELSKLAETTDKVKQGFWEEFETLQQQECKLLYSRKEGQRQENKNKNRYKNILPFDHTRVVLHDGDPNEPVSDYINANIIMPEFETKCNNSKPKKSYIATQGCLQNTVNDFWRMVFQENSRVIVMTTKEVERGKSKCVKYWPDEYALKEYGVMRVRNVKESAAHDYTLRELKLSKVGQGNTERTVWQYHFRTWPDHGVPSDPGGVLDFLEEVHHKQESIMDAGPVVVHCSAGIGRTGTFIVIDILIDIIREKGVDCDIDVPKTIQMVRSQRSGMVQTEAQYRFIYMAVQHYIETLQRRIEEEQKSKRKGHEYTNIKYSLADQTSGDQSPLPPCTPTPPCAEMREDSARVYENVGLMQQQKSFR
Procedure: Compound DJ001 was evaluated in a PhosphataseProfiler™ screen at 10 μM and 1 μM (2.7 μg/mL and 0.27 μg/mL) concentrations at Eurofins Pharma Discovery Services UK (Study number UK022-0004033) against a panel of 21 Phosphatases. In each experiment, the respective reference antagonist/agonist was tested directly with DJ001 and the data were compared with historical values determined at Eurofins. DJ001 compound inhibition was calculated as percentage inhibition of the enzymatic activity compared with control.

BM KSL cells = assay: CFC assay from 300 cGy-irradiated BM KSL cells, 3 day culture; format: cell-based, mouse
Procedure: CFC assays (colony-forming unit-granulocyte monocyte), burst-forming unit-erythroid, and CFU-GEMM were performed using MethoCult GF M3434 (Stemcell Technologies)[6]. […] Recombinant mouse SCF, Flt3 ligand, and TPO were purchased from R&D Systems. For competitive repopulation assays, BM cells were isolated from donor 10–12-week-old female CD45.2^+ mice. Recipient 10-week-old female CD45.1^+ B6.SJL mice were irradiated with 950 cGy TBI using a Cs137 irradiator and donor BM cells were administered via tail vein injection along with a competing dose of 1 × 10^5 non-irradiated host BM cells. Multilineage donor hematopoietic cell engraftment was measured in the PB by flow cytometry.

p250GAP in BM lin− cells = assay: p250GAP phospho-tyrosine sandwich ELISA; format: cell-based, mouse
Procedure: Clear, pre-blocked Protein A-coated Microtiter wells (Fisher Scientific, #15132) were incubated with ARHGAP32 polyclonal antibody (Bioss, #bs-9296R, 1:500) in antibody dilution buffer (150 mM NaCl, 25 mM HEPES pH 7.2, 0.5% bovine serum albumin, 0.05% Tween 20) for 3 h at room temperature (RT). Subsequently, the plate was washed three times and phosphorylated p250GAP from BM lin^− cell lysate was added to each well. BM lin^− cells were collected in NP40 buffer (ThermoFisher Scientific; FNN0021) supplemented with 1× complete, Mini, EDTA-free Protease Inhibitor Cocktail (Sigma Aldrich; 4693159001) and 1× PhosSTOP (Sigma Aldrich; 4906845001). Following incubation for 2 h at 4 °C, the plate was completely emptied (without washing) and exposed to 50 μL of a fixation solution (0.5% formaldehyde in 300 mM NaCl, 20 mM sodium phosphate buffer, pH 7) for 10 min. The plate-bound, phosphorylated p250GAP was measured by a specific anti-phospho-tyrosine peroxidase-coupled antibody (Sigma Aldrich, #A5964-1VL, 1:500) in antibody dilution buffer. Incubation was for 1 h at RT. Peroxidase activity was measured by a Tecan Infinity plate reader using BM Chemiluminescence ELISA Substrate (Sigma Aldrich, #11582950001).

[2] = tested on: BM KSL cells; donor CD45.2+ cells; assay: In vivo BrdU incorporation analysis; design: species or system mouse
Procedure: For BrdU incorporation analysis in BM KSL cells in vivo, adult C57Bl/6 mice were irradiated with 750 cGy TBI and treated with 5 mg/kg DJ001 or vehicle daily from day + 1 to day + 10. On day + 10, mice were injected intraperitoneally with 2 mg BrdU (BD Biosciences). Sixteen hours later, BM cells were collected and stained with anti-BrdU FITC (BD Biosciences, #557891, 1:50), APC-Cy7-conjugated anti-Sca1 (BD Biosciences, #560654, 1:100), PE-conjugated anti-c-kit (BD Biosciences, #553355, 1:100), and V450 lineage cocktail (BD Biosciences, #561301, 1:10). We repeated this BrdU incorporation analysis on donor CD45.2^+ cells at day + 7 and day + 21 following competitive transplantation into recipient CD45.1^+ mice.

[3] = BM KSL cells, 300 cGy, 3 days in TSF media + DJ001

O=C(/C=C\Nc1cccc([N+](=O)[O-])c1)c1ccccc1 [DJ001, (Z)-3-((3-nitrophenyl)amino)-1-phenylprop-2-en-1-one]
Supplementary Figure 1: SHP-2 activity ([1]; 0.27 μg/mL DJ001): 99 and 96 and 102
Supplementary Figure 1: SHP-2 activity ([1]; 2.7 μg/mL DJ001): 87 and 90 and 94
recovery of BM CFCs and CFU-GEMM colonies vs control (BM KSL cells; 300 cGy, 1 μg/mL DJ001, 3 days): increased recovery of BM CFCs
BFU-E, numbers per replicate (BM KSL cells; [3]): 2 (3×) and 4 (2×) and 3 (5×) and 1 (2×)
GEMM, numbers per replicate (BM KSL cells; [3]): 5 (3×) and 3 (2×) and 4 (2×) and 6 (5×)
CFU-GEMM (BM KSL cells; Supplementary Figure 7g): 7
CFU-GEMM (BM KSL cells; Supplementary Figure 7d): 7
phosphorylation of p250GAP (p250GAP in BM lin− cells; 1 µg/mL DJ001): significantly increased phosphorylation of p250GAP
Figure 3a: p250GAP phosphorylation (phospho-tyrosine ELISA) (p250GAP in BM lin− cells; DJ001 vs media, individual replicates): 62.785 and 39.77 and 58.721 and 55.943 and 45.893 and 49.264 and 56.331
BrdU incorporation ([2]; Supplementary Figure 7i): 36.54 and 44.684 and 44.262 and 33.456
BrdU incorporation in donor CD45.2+ cells, DJ001 vs vehicle group ([2]; day +7 and day +21 following competitive transplantation): no difference in BrdU incorporation
BrdU incorporation in BM KSL cells vs vehicle ([2]; day +10 following 750 cGy TBI): increased bromodeoxyuridine (BrdU) incorporation
